According to publication PMC5218480 (PLoS ONE, 2017):

System: MV-4-11 cells
Assay: Gene expression microarray analysis (Affymetrix PrimeView) and GSEA
Assay type: cell-based, human
Design: RFU PODN (11730768_x_at) / Fold change /veh PODN (11730768_x_at) / RFU LINC00158 (11744669_a_at) / Fold change /veh LINC00158 (11744669_a_at) / RFU DUSP10 (11751237_a_at) / Fold change /veh DUSP10 (11751237_a_at) / RFU ID3 (11757404_x_at) / Fold change /veh ID3 (11757404_x_at) / RFU PLEKHG5 (11737974_s_at) / Fold change /veh PLEKHG5 (11737974_s_at) / RFU LRRC4B (11730491_at) / Fold change /veh LRRC4B (11730491_at) / RFU GIMAP4 (11747438_a_at) / Fold change /veh GIMAP4 (11747438_a_at) / RFU KRT8 (11758183_x_at) / Fold change /veh KRT8 (11758183_x_at) / RFU CNN1 (11734310_a_at) / Fold change /veh CNN1 (11734310_a_at) / RFU VPS37D (11726825_at) / Fold change /veh VPS37D (11726825_at) / RFU C10orf10 (11716522_x_at) / Fold change /veh C10orf10 (11716522_x_at) / RFU KIR2DL2 /// KIR2DL4 /// KIR2DL5A /// KIR2DL5B /// KIR2DS1 /// KIR2DS2 /// KIR2DS3 /// KIR2DS4 /// KIR3DL3 /// KIR3DL3 /// KIR3DS1 (11738374_at) / Fold change /veh KIR2DL2 /// KIR2DL4 /// KIR2DL5A /// KIR2DL5B /// KIR2DS1 /// KIR2DS2 /// KIR2DS3 /// KIR2DS4 /// KIR3DL3 /// KIR3DL3 /// KIR3DS1 (11738374_at) / RFU C1QL1 (11718748_at) / Fold change /veh C1QL1 (11718748_at) / RFU TMPRSS4 (11747572_a_at) / Fold change /veh TMPRSS4 (11747572_a_at) / RFU HAMP (11756126_x_at) / Fold change /veh HAMP (11756126_x_at) / RFU RNFT2 (11725882_a_at) / Fold change /veh RNFT2 (11725882_a_at) / RFU NR4A2 (11747474_a_at) / Fold change /veh NR4A2 (11747474_a_at) / RFU ABCC12 (11746883_a_at) / Fold change /veh ABCC12 (11746883_a_at) / RFU TMEM136 (11760407_x_at) / Fold change /veh TMEM136 (11760407_x_at) / RFU CLDN22 /// WWC2 (11732394_at) / Fold change /veh CLDN22 /// WWC2 (11732394_at) / RFU HLA-DPB1 (11760878_x_at) / Fold change /veh HLA-DPB1 (11760878_x_at) / RFU SPINT1 (11716480_a_at) / Fold change /veh SPINT1 (11716480_a_at) / RFU GAP43 (11754022_s_at) / Fold change /veh GAP43 (11754022_s_at) / RFU A4GNT (11735810_at) / Fold change /veh A4GNT (11735810_at) / RFU PRB3 (11715151_x_at) / Fold change /veh PRB3 (11715151_x_at) / RFU TUBB4B (11761932_at) / Fold change /veh TUBB4B (11761932_at) / RFU CAPN14 (11732068_a_at) / Fold change /veh CAPN14 (11732068_a_at) / RFU TMCC2 (11721928_a_at) / Fold change /veh TMCC2 (11721928_a_at) / RFU IRGQ (11745062_a_at) / Fold change /veh IRGQ (11745062_a_at) / RFU FAM174B (11720279_a_at) / Fold change /veh FAM174B (11720279_a_at) / RFU TMPRSS4 (11748680_a_at) / Fold change /veh TMPRSS4 (11748680_a_at) / RFU FAM212B (11763350_a_at) / Fold change /veh FAM212B (11763350_a_at) / RFU PLEKHG5 (11743358_a_at) / Fold change /veh PLEKHG5 (11743358_a_at) / RFU ZSCAN30 (11745921_a_at) / Fold change /veh ZSCAN30 (11745921_a_at) / RFU CMKLR1 (11741424_a_at) / Fold change /veh CMKLR1 (11741424_a_at) / RFU LOC101060620 /// MAPK8IP1 (11723275_at) / Fold change /veh LOC101060620 /// MAPK8IP1 (11723275_at) / RFU SPTSSB (11747773_x_at) / Fold change /veh SPTSSB (11747773_x_at) / RFU PRSS12 (11739890_at) / Fold change /veh PRSS12 (11739890_at) / RFU BIN1 (11741810_x_at) / Fold change /veh BIN1 (11741810_x_at) / RFU WNT11 (11732464_a_at) / Fold change /veh WNT11 (11732464_a_at) / RFU C10orf10 (11716521_a_at) / Fold change /veh C10orf10 (11716521_a_at) / RFU C5orf56 (11738089_at) / Fold change /veh C5orf56 (11738089_at) / RFU CYB561 (11721691_x_at) / Fold change /veh CYB561 (11721691_x_at) / RFU ANKRD19P (11752326_a_at) / Fold change /veh ANKRD19P (11752326_a_at) / RFU OR2T12 /// OR2T33 /// OR2T8 (11738714_s_at) / Fold change /veh OR2T12 /// OR2T33 /// OR2T8 (11738714_s_at) / RFU VCAN (11748164_a_at) / Fold change /veh VCAN (11748164_a_at) / RFU JSRP1 (11732532_at) / Fold change /veh JSRP1 (11732532_at) / RFU KRTAP10-11 (11738290_x_at) / Fold change /veh KRTAP10-11 (11738290_x_at) / RFU MYO3A (11730013_a_at) / Fold change /veh MYO3A (11730013_a_at) / RFU EBF3 (11725865_a_at) / Fold change /veh EBF3 (11725865_a_at) / RFU CAMK2N1 (11719241_x_at) / Fold change /veh CAMK2N1 (11719241_x_at) / RFU C5orf56 (11738088_a_at) / Fold change /veh C5orf56 (11738088_a_at) / RFU OLFML3 (11715873_a_at) / Fold change /veh OLFML3 (11715873_a_at) / RFU LOC100653217 /// NTM (11731650_a_at) / Fold change /veh LOC100653217 /// NTM (11731650_a_at) / RFU MAPK11 (11762145_a_at) / Fold change /veh MAPK11 (11762145_a_at) / RFU FIZ1 (11724087_x_at) / Fold change /veh FIZ1 (11724087_x_at) / RFU OASL (11726364_x_at) / Fold change /veh OASL (11726364_x_at) / RFU SOX15 (11748057_x_at) / Fold change /veh SOX15 (11748057_x_at) / RFU CD79A (11719716_a_at) / Fold change /veh CD79A (11719716_a_at) / RFU HIST1H1D (11736915_at) / Fold change /veh HIST1H1D (11736915_at) / RFU CASKIN2 (11723855_a_at) / Fold change /veh CASKIN2 (11723855_a_at) / RFU LOC730098 (11760151_x_at) / Fold change /veh LOC730098 (11760151_x_at) / RFU OR4N2 (11742367_at) / Fold change /veh OR4N2 (11742367_at) / RFU PRRT2 (11749266_a_at) / Fold change /veh PRRT2 (11749266_a_at) / RFU SNX32 (11753110_a_at) / Fold change /veh SNX32 (11753110_a_at) / RFU CDHR5 (11726645_a_at) / Fold change /veh CDHR5 (11726645_a_at) / RFU RCAN1 (11760418_a_at) / Fold change /veh RCAN1 (11760418_a_at) / RFU FAM167A (11723789_a_at) / Fold change /veh FAM167A (11723789_a_at) / RFU FAM26E (11764081_at) / Fold change /veh FAM26E (11764081_at) / RFU ISYNA1 (11749810_s_at) / Fold change /veh ISYNA1 (11749810_s_at) / RFU ACY1 (11761880_at) / Fold change /veh ACY1 (11761880_at) / RFU 11764098_at / Fold change /veh 11764098_at / RFU SAMD14 (11745864_x_at) / Fold change /veh SAMD14 (11745864_x_at) / RFU NPB (11741838_a_at) / Fold change /veh NPB (11741838_a_at) / RFU TMPRSS6 (11731388_a_at) / Fold change /veh TMPRSS6 (11731388_a_at) / RFU KRTAP10-2 (11738614_at) / Fold change /veh KRTAP10-2 (11738614_at) / RFU ARHGAP8 /// PRR5-ARHGAP8 (11727945_x_at) / Fold change /veh ARHGAP8 /// PRR5-ARHGAP8 (11727945_x_at) / RFU KRTAP5-7 /// NADSYN1 (11734609_at) / Fold change /veh KRTAP5-7 /// NADSYN1 (11734609_at) / RFU RASL12 (11751679_a_at) / Fold change /veh RASL12 (11751679_a_at) / RFU CDKN2B (11736163_a_at) / Fold change /veh CDKN2B (11736163_a_at) / RFU PRF1 (11729649_at) / Fold change /veh PRF1 (11729649_at) / RFU, ZNF638 /// ZNF638-IT1 / Fold change vs veh, ZNF638 /// ZNF638-IT1 / RFU, PANK3 / Fold change vs veh, PANK3 / RFU, SH3YL1 / Fold change vs veh, SH3YL1 / RFU, ZEB2 / Fold change vs veh, ZEB2 / RFU, NRIP1 / Fold change vs veh, NRIP1 / RFU, PTTG1IP / Fold change vs veh, PTTG1IP / RFU, CAPN2 / Fold change vs veh, CAPN2 / RFU, MED14 / Fold change vs veh, MED14 / RFU, SNORA58 / Fold change vs veh, SNORA58 / RFU, C1orf63 / Fold change vs veh, C1orf63 / RFU, LRRFIP1 / Fold change vs veh, LRRFIP1 / RFU, NDUFAF7 / Fold change vs veh, NDUFAF7 / RFU, SLC12A2 / Fold change vs veh, SLC12A2 / RFU, IBTK / Fold change vs veh, IBTK / RFU, ESF1 / Fold change vs veh, ESF1 / Fold change vs veh, TMEM50B / RFU, TAOK1 / Fold change vs veh, TAOK1 / RFU, ACBD3 / Fold change vs veh, ACBD3 / RFU, TMA16 / Fold change vs veh, TMA16 / RFU, RWDD3 / Fold change vs veh, RWDD3 / RFU, BCAT1 / Fold change vs veh, BCAT1 / RFU, EDEM3 / Fold change vs veh, EDEM3 / RFU, TMEM33 / Fold change vs veh, TMEM33 / RFU, WDR75 / Fold change vs veh, WDR75 / RFU, AHCTF1 / Fold change vs veh, AHCTF1 / RFU, TFRC / Fold change vs veh, TFRC / RFU, ZDHHC17 / Fold change vs veh, ZDHHC17 / RFU, NOM1 / Fold change vs veh, NOM1 / RFU, ARL8B / Fold change vs veh, ARL8B / RFU, ZBTB11 / Fold change vs veh, ZBTB11 / RFU, TAMM41 / Fold change vs veh, TAMM41 / RFU, KIAA1704 /// LOC100996395 / Fold change vs veh, KIAA1704 /// LOC100996395 / RFU, ING1 / Fold change vs veh, ING1 / RFU, TRMT61B / Fold change vs veh, TRMT61B / RFU, FUBP3 / Fold change vs veh, FUBP3 / RFU, TP53 / Fold change vs veh, TP53 / RFU, TNKS2 / Fold change vs veh, TNKS2 / RFU, ZFP14 / Fold change vs veh, ZFP14 / RFU, ACTR2 / Fold change vs veh, ACTR2 / RFU, PPP3R1 / Fold change vs veh, PPP3R1 / RFU, PIK3R1 / Fold change vs veh, PIK3R1 / RFU, HNRNPA1 / Fold change vs veh, HNRNPA1 / RFU, RNF170 / Fold change vs veh, RNF170 / RFU, ZNF28 / Fold change vs veh, ZNF28 / RFU, RNGTT / Fold change vs veh, RNGTT / RFU, OGT / Fold change vs veh, OGT / RFU, BRD1 / Fold change vs veh, BRD1 / RFU, MARS / Fold change vs veh, MARS / RFU, ZNF655 / Fold change vs veh, ZNF655 / RFU, FAHD1 / Fold change vs veh, FAHD1 / RFU, BDP1 / Fold change vs veh, BDP1 / RFU, LRRCC1 / Fold change vs veh, LRRCC1 / RFU, ARID1A / Fold change vs veh, ARID1A / RFU, ZNF146 / Fold change vs veh, ZNF146 / RFU, ZNF330 / Fold change vs veh, ZNF330 / RFU, GPN3 / Fold change vs veh, GPN3 / RFU, C9orf123 / Fold change vs veh, C9orf123 / RFU, N4BP2L2 / Fold change vs veh, N4BP2L2 / RFU, ARFIP1 / Fold change vs veh, ARFIP1 / RFU, FAM179B / Fold change vs veh, FAM179B / RFU, BCL10 / Fold change vs veh, BCL10 / RFU, UHRF1BP1L / Fold change vs veh, UHRF1BP1L / RFU, BET1 / Fold change vs veh, BET1 / RFU, CNOT2 / Fold change vs veh, CNOT2 / RFU, ZNF268 / Fold change vs veh, ZNF268 / Fold change vs veh, ZNF507 / RFU, DGCR2 / Fold change vs veh, DGCR2 / RFU, WDSUB1 / Fold change vs veh, WDSUB1 / Fold change vs veh, HSP90B1 /// MIR3652 / RFU, ADSS / Fold change vs veh, ADSS / RFU, GK / Fold change vs veh, GK / RFU, ZNF148 / Fold change vs veh, ZNF148 / RFU, TAF9 / Fold change vs veh, TAF9 / RFU, SLC1A5 / Fold change vs veh, SLC1A5 / RFU, SLMO2 / Fold change vs veh, SLMO2 / RFU, ABCC4 / Fold change vs veh, ABCC4 / RFU, LOC101060439 /// RAP1B / Fold change vs veh, LOC101060439 /// RAP1B / RFU, RFX7 / Fold change vs veh, RFX7 / RFU, GTPBP10 / Fold change vs veh, GTPBP10 / RFU, CNEP1R1 / Fold change vs veh, CNEP1R1 / RFU, BIVM-ERCC5 /// ERCC5 / Fold change vs veh, BIVM-ERCC5 /// ERCC5 / RFU, ILF3 / Fold change vs veh, ILF3 / RFU 11762660_at / Fold change /veh 11762660_at / RFU VCAN (11757783_s_at) / Fold change /veh VCAN (11757783_s_at) / RFU DDX43 (11728927_at) / Fold change /veh DDX43 (11728927_at) / RFU KRT8 (11758188_x_at) / Fold change /veh KRT8 (11758188_x_at) / RFU NKD1 (11759106_at) / Fold change /veh NKD1 (11759106_at) / RFU SRD5A1 (11742802_a_at) / Fold change /veh SRD5A1 (11742802_a_at) / RFU TPSAB1 /// TPSB2 (11721975_s_at) / Fold change /veh TPSAB1 /// TPSB2 (11721975_s_at) / RFU GSTM3 (11746129_a_at) / Fold change /veh GSTM3 (11746129_a_at) / RFU IL23R (11737362_x_at) / Fold change /veh IL23R (11737362_x_at) / RFU TMEM51 (11727254_a_at) / Fold change /veh TMEM51 (11727254_a_at) / RFU PIWIL2 (11732686_x_at) / Fold change /veh PIWIL2 (11732686_x_at) / RFU ORM1 (11744905_x_at) / Fold change /veh ORM1 (11744905_x_at) / RFU CCDC152 (11743942_at) / Fold change /veh CCDC152 (11743942_at) / RFU ECM1 (11717891_a_at) / Fold change /veh ECM1 (11717891_a_at) / RFU IL23R (11748794_a_at) / Fold change /veh IL23R (11748794_a_at) / RFU TNFAIP8L3 (11732012_x_at) / Fold change /veh TNFAIP8L3 (11732012_x_at) / RFU MBOAT4 (11741988_at) / Fold change /veh MBOAT4 (11741988_at) / RFU 11764193_at / Fold change /veh 11764193_at / RFU TMEM53 (11763286_at) / Fold change /veh TMEM53 (11763286_at) / RFU MAGEB2 (11727129_at) / Fold change /veh MAGEB2 (11727129_at) / RFU TMEM200A (11744735_a_at) / Fold change /veh TMEM200A (11744735_a_at) / RFU CCDC152 (11751479_a_at) / Fold change /veh CCDC152 (11751479_a_at) / RFU FAM211A (11726209_a_at) / Fold change /veh FAM211A (11726209_a_at) / RFU RGS16 (11746705_a_at) / Fold change /veh RGS16 (11746705_a_at) / RFU VCAN (11755009_s_at) / Fold change /veh VCAN (11755009_s_at) / RFU RHOB (11743442_s_at) / Fold change /veh RHOB (11743442_s_at) / RFU RGS16 (11720943_a_at) / Fold change /veh RGS16 (11720943_a_at) / RFU RGS16 (11720944_at) / Fold change /veh RGS16 (11720944_at) / RFU, VPS4B / Fold change vs veh, VPS4B / RFU, CREB1 / Fold change vs veh, CREB1 / RFU, DNAJC13 / Fold change vs veh, DNAJC13 / RFU, GNAQ / Fold change vs veh, GNAQ / RFU, CDK5R1 / Fold change vs veh, CDK5R1 / RFU, ZRANB3 / Fold change vs veh, ZRANB3 / RFU, CUL4A / Fold change vs veh, CUL4A / RFU, CCNY / Fold change vs veh, CCNY / RFU, UFL1 / Fold change vs veh, UFL1 / RFU, COG3 / Fold change vs veh, COG3 / RFU, DIAPH2 / Fold change vs veh, DIAPH2 / RFU, SKA2 / Fold change vs veh, SKA2 / RFU, AFF3 / Fold change vs veh, AFF3 / RFU, LMF1 / Fold change vs veh, LMF1 / RFU, IPO11 / Fold change vs veh, IPO11 / RFU, DFFB / Fold change vs veh, DFFB / RFU, FOXP1 / Fold change vs veh, FOXP1 / RFU, CARD8 / Fold change vs veh, CARD8 / RFU, STRN3 / Fold change vs veh, STRN3 / RFU, ADK / Fold change vs veh, ADK / RFU, RASSF2 / Fold change vs veh, RASSF2 / RFU, WIPF1 / Fold change vs veh, WIPF1 / RFU, LARP1B / Fold change vs veh, LARP1B / RFU, RASA1 / Fold change vs veh, RASA1 / RFU, RB1 / Fold change vs veh, RB1 / RFU, PPFIA1 / Fold change vs veh, PPFIA1 / RFU, MAT2A / Fold change vs veh, MAT2A / RFU, CCT5 / Fold change vs veh, CCT5 / RFU, WDR92 / Fold change vs veh, WDR92 / RFU, CUX1 / Fold change vs veh, CUX1 / RFU, TTC7A / Fold change vs veh, TTC7A / RFU, TMEM135 / Fold change vs veh, TMEM135 / RFU, DEPTOR / Fold change vs veh, DEPTOR / RFU, CPM / Fold change vs veh, CPM / RFU, DNAJB6 / Fold change vs veh, DNAJB6 / RFU, CACNA2D3 / Fold change vs veh, CACNA2D3 / RFU, DTX4 / Fold change vs veh, DTX4 / RFU, TFCP2 / Fold change vs veh, TFCP2 / RFU, GMCL1 /// GMCL1P1 / Fold change vs veh, GMCL1 /// GMCL1P1 / RFU, AEBP2 / Fold change vs veh, AEBP2 / RFU, SNHG1 /// SNORD22 /// SNORD25 /// SNORD26 /// SNORD27 /// SNORD28 /// SNORD29 /// SNORD31 / Fold change vs veh, SNHG1 /// SNORD22 /// SNORD25 /// SNORD26 /// SNORD27 /// SNORD28 /// SNORD29 /// SNORD31 / Fold change (Aza/veh), C12orf56 (ProbeSet 11735607_a_at) / Fold change (ACY-1035/veh), C12orf56 (ProbeSet 11735607_a_at) / Fold change (Aza/veh), FGFR1OP (ProbeSet 11751329_s_at) / Fold change (ACY-1035/veh), FGFR1OP (ProbeSet 11751329_s_at) / Fold change (Aza/veh), VPS36 (ProbeSet 11739960_a_at) / Fold change (ACY-1035/veh), VPS36 (ProbeSet 11739960_a_at) / RFU SYPL1 (11715823_x_at) / Fold change /veh SYPL1 (11715823_x_at) / RFU IGFBP7 (11715501_s_at) / Fold change /veh IGFBP7 (11715501_s_at) / RFU REEP3 (11722064_at) / Fold change /veh REEP3 (11722064_at) / RFU IGLL1 (11728026_x_at) / Fold change /veh IGLL1 (11728026_x_at): dose or concentration left out as unconfirmed
Details: MV-4-11 cells, 48 hours

Nc1ccc(-c2cccs2)cc1NC(=O)c1ccc2c(c1)cc(C1CC1)n2CCN1CCOCC1 [ACY-1035]
Fold change /veh MBOAT4 (11741988_at): 1.14
